Test results: US20080171718A1, “Methods and Compositions for Treating Cancer Using BCL-2 Antisense Oligomers, Tyrosine Kinase Inhibitors, and Chemotherapeutic Agents” (priority 2006, published 2008)
“Also recorded” adds a separate entry of the source.

Tested on: A549 human lung cancer model
Experiment: Tumor growth delay in A549 human lung cancer model in SCID mice
Type: in vivo
Conditions: for effect of the tyrosine kinase inhibitor in triplet therapy with Bcl-2 antisense and cytotoxic chemotherapeutic (comparison, interaction): A549 model, triplet with Genasense and Taxol/Abraxane
Protocol: Genasense® (G3139 by Genta, Bcl-2 inhibitor, also referred to in the Figures as “OBL”), Abraxane® (by Abraxis, paclitaxel), and Taxol® (by Bristol Myers Squibb, paclitaxel) were submitted for evaluation in combination with tyrosine kinase inhibitors against an A549 human lung cancer model in severe combined immune deficient (SCID) mice. Ten treatment groups having 10 mice per group were analyzed for tumor growth delay. G3139, Abraxane, and Taxol were administered via intravenous (IV) injection, and tyrosine kinase inhibitors were administered via oral gavage (PO).
The mice were injected with 100 μl tumor cells subcutaneously (SC). […] On the 15th day, treatment cycles of 5 days on and 2 days off began for a series of 3 cycles. During treatment, the mice were weighed twice daily. Tumor volume estimation (mm^3) was made in accordance with the formula (a^2×b/2), where “a” is the smallest diameter and “b” is the largest diameter. All procedures were completed in accordance with established animal care protocols.
Subconfluent cells were harvested by using 0.23% trypsin-EDTA (HyClone, Logan, Utah) and were counted using the trypan blue assay technique. Cells (99% viability) were re-suspended at the concentration of 10×10^6 cells/100 μl of sterile saline.
G3139 was prepared fresh each treatment day from a refrigerated stock solution of 30 mg/ml using sterile saline as the vehicle; while tyrosine kinase inhibitors in capsule form were brought up to the desired concentration using 10% DMSO and 90% sterile saline as the vehicle. Taxol (Infusion Solutions, Tucson, Az.) was prepared fresh each treatment day from a refrigerated stock solution of 6 mg/ml in Cremaphor EL/EtOH using sterile saline as the vehicle. Abraxane was prepared from a frozen stock of 5 mg/ml with the diluent of sterile saline. G3139 (20 mg/kg) was administered twice during each 5-day treatment cycle, on day 3 and on day 5. […] G3139 was administered at a volume of 0.1 ml using a 27 gauge needle (Becton Dickinson). Abraxane and Taxol were administered at a volume of 0.2 ml using a 27 gauge needle. […]

Structure (SMILES)	effect of the tyrosine kinase inhibitor in triplet therapy with Bcl-2 antisense and cytotoxic chemotherapeutic (comparison, interaction)	tumor growth / tumor growth inhibition compared to the negative control (tumor volume versus days post implantation) (FIG. 1-3, single agent, SC A549 tumors, 3 cycles of 5 days on/2 days off from day 15, Taxol/Abraxane 13.4 mg/kg IV day 1, Gleevec 100 mg/kg, Sutent/Nexavar 40 mg/kg PO daily)
CNC(=O)c1cc(Oc2ccc(NC(=O)Nc3ccc(Cl)c(C(F)(F)F)c3)cc2)ccn1 [Nexavar, sorafenib]	comparable to Sutent in the triplet therapy and more effective than Gleevec; also recorded: unexpectedly enhanced interaction	minor and substantially similar tumor growth inhibition
C#Cc1cccc(Nc2ncnc3cc(OCCOC)c(OCCOC)cc23)c1 [Tarceva, erlotinib]	does not significantly enhance the efficacy	
